Laboratory results reported in patent US9108983B2, “Pyrrole compounds, a process for their preparation and pharmaceutical compositions containing them” (LES LABORATOIRES SERVIER, priority 2013, dated 2015).
Where a name gives a salt, the structure may show the parent alone. Read-outs that look alike come from different tables or passages of the source.

What was measured:
[1] = target: Bcl-2 protein (histag-Bcl-2, UniProtKB P10415) (Homo sapiens (Human), UniProt P10415); assay: Inhibition of Bcl-2 by the fluorescence polarisation technique; type: binding; settings: incubation for 2 hours, read-out: IC50 (nM) Bcl-2 FP
Sequence of Bcl-2 protein (P10415 whole entry): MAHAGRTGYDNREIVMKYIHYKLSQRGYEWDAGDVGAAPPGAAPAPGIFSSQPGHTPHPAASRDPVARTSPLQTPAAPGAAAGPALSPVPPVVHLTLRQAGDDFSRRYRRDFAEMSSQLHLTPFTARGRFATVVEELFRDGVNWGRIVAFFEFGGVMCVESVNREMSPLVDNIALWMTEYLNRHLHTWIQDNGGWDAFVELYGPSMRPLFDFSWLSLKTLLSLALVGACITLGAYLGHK
How it was run: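 Fluorescence polarisation competition: His-tagged Bcl-2 (2.50×10^−8 M final) with fluorescein-labelled peptide (1.00×10^−8 M final) in 10 mM Hepes, 150 mM NaCl, 0.05% Tween20, pH 7.4. Increasing compound concentrations were added. Polarisation was read after 2 h incubation.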

[2] = test system: RS4;11 leukaemia tumour line; assay: In vitro cytotoxicity (Microculture Tetrazolium Assay); type: cell-based; settings: Homo sapiens, RS4;11 cells, exposed for 48 hours, cell viability, read-out: IC50 (nM) MTT RS4;11
Description: The cytotoxicity studies were carried out on the RS4;11 leukaemia tumour line.
The cells are distributed onto microplates and exposed to the test compounds for 48 hours.
The cell viability is then quantified by a colorimetric assay, the Microculture Tetrazolium Assay (Cancer Res., 1987, 47, 939-942).

SMILES	IC50 [1]	IC50 ([2]; RS4-11, 48 h)	IC50 [2]
COc1ncc(N(C(=O)c2cc(-c3cc4c(cc3C(=O)N3Cc5ccccc5C[C@H]3C)OCO4)n(C)c2C)c2ccc(O)cc2)cn1 [Example 48, N-(4-Hydroxyphenyl)-N-(2-methoxypyrimidin-5-yl)-1,2-dimethyl-5-(6-{[(3R)-3-methyl-3,4-dihydroisoquinolin-2(1H)-yl]carbonyl}-1,3-benzodioxol-5-yl)-1H-pyrrole-3-carboxamide]	4.4 nM	14.9 nM	
Cc1c(C(=O)N(c2ccc(O)cc2)c2cnc3c(ccn3C)c2)cc(-c2cc3c(cc2C(=O)N2Cc4ccccc4C[C@H]2C)OCO3)n1C [Example 42, N-(4-Hydroxyphenyl)-1,2-dimethyl-5-(6-{[(3R)-3-methyl-3,4-dihydroisoquinolin-2(1H)-yl]carbonyl}-1,3-benzodioxol-5-yl)-N-(1-methyl-1H-pyrrolo[2,3-b]pyridin-5-yl)-1H-pyrrole-3-carboxamide]	5.2 nM	4.36 nM	
COc1cc(C(=O)N2Cc3ccccc3C[C@H]2CN2CCOCC2)c(-c2[nH]c(C)c(C(=O)N(c3ccc(O)cc3)c3cnn(C)c3)c2C)cc1F [Example 100, 5-(5-Fluoro-4-methoxy-2-{[(3S)-3-(morpholin-4-ylmethyl)-3,4-dihydroisoquinolin-2(1H)-yl]carbonyl}phenyl)-N-(4-hydroxyphenyl)-4,2-dimethyl-N-(1-methyl-1H-pyrazol-4-yl)-1H-pyrrole-3-carboxamide hydrochloride]	22.9 nM	193 nM	
Cc1c(C(=O)N(C)c2ccc(O)cc2)cc(-c2cc(CNC(=O)Oc3ccccc3)ccc2C(=O)N2Cc3ccccc3C[C@H]2C)n1C [Example 40, Phenyl (3-{4-[(4-hydroxyphenyl)(methyl)carbamoyl]-1,5-dimethyl-1H-pyrrol-2-yl}-4-{[(3R)-3-methyl-3,4-dihydroisoquinolin-2(1H)-yl]carbonyl}benzyl)-carbamate]	64.4 nM		431 nM
Cc1c(C(=O)N(c2ccncc2)c2ccc(O)cc2)cc(-c2cc3c(cc2C(=O)N2Cc4ccccc4C[C@H]2C)OCO3)n1C [Example 61, N-(4-Hydroxyphenyl)-1,2-dimethyl-5-(6-{[(3R)-3-methyl-3,4-dihydroisoquinolin-2(1H)-yl]carbonyl}-1,3-benzodioxol-5-yl)-N-(pyridin-4-yl)-1H-pyrrole-3-carboxamide hydrochloride]	4.5 nM	37.8 nM	
COc1ccc(C(=O)N2Cc3ccccc3C[C@H]2CN2CCOCC2)c(-c2cc(C(=O)N(c3ccc(O)c(F)c3)c3cnn(C)c3)c(C)n2C)c1 [Example 407, N-(3-Fluoro-4-hydroxyphenyl)-5-(5-methoxy-2-{[(3S)-3-(morpholin-4-ylmethyl)-3,4-dihydroisoquinolin-2(1H)-yl]carbonyl}phenyl)-1,2-dimethyl-N-(1-methyl-1H-pyrazol-4-yl)-1H-pyrrole-3-carboxamide hydrochloride]	20.6 nM	150 nM	

The next molecules have a lower IC50 [1] than those just listed; values first:

IC50 [1]	SMILES	IC50 ([2]; RS4-11, 48 h)	IC50 [2]
3.4 nM	Cc1c(C(=O)N(c2ccc(O)cc2)c2cnn(C)c2)cc(-c2cc(Cl)ccc2C(=O)N2Cc3ccccc3C[C@H]2CN2CCN3CCOC[C@H]3C2)n1C [Example 116, 5-(5-Chloro-2-{[(3S)-3-[(9aR)-hexahydropyrazino[2,1-c][1,4]oxazin-8(1H)-ylmethyl]-3,4-dihydroisoquinolin-2(1H)-yl]carbonyl}phenyl)-N-(4-hydroxyphenyl)-1,2-dimethyl-N-(1-methyl-1H-pyrazol-4-yl)-1H-pyrrole-3-carboxamide dihydrochloride]	47.8 nM	
2 nM	Cc1c(C(=O)N(c2ccc(O)cc2)c2cnc3c(ccn3C)c2)cc(-c2cc(Cl)ccc2C(=O)N2Cc3ccccc3C[C@H]2CN2CCN(C)CC2)n1C [Example 102, 5-(5-Chloro-2-{[(3S)-3-[(4-methylpiperazin-1-yl)methyl]-3,4-dihydroisoquinolin-2(1H)-yl]carbonyl}phenyl)-N-(4-hydroxyphenyl)-1,2-dimethyl-N-(1-methyl-1H-pyrrolo[2,3-b]pyridin-5-yl)-1H-pyrrole-3-carboxamide trihydrochloride]	6.51 nM	
